In paper PMC2737686 (Virology, 2009):
Peptide text beside a SMILES is read from it.

Experiments:
DHBV core gene RNA = assay: Filter-binding assay of peptides, DHBV core gene RNA; set-up: species or system Duck hepatitis B virus; settings: 32P-labeled DHBV core gene RNA
ε RNA = assay: Filter-binding assay of peptides, ε RNA; set-up: species or system Duck hepatitis B virus; settings: peptide 10 pMol to 0.3 pMol on filter; 32P-labeled ε RNA
[1] = test system: double-stranded DNA fragment; assay: Filter-binding assay of peptides, double-stranded DNA; settings: 32P-labeled double-stranded DNA fragment

In the case of `CC[C@H](C)[C@H](NC(=O)[C@H](CCCNC(=N)N)NC(=O)[C@H](CC(N)=O)NC(=O)[C@@H]1CCCN1C(=O)[C@H](Cc1c[nH]c2ccccc12)NC(=O)[C@@H](N)CO)C(=O)N[C@H](C(=O)NCC(=O)N[C@@H](CCCCN)C(=O)N[C@@H](CC(C)C)C(=O)N[C@@H](Cc1ccccc1)C(=O)N[C@@H](CC(C)C)C(=O)N[C@H](C(=O)N[C@@H](CC(=O)O)C(=O)N[C@@H](CCCCN)C(=O)N[C@@H](CC(N)=O)C(=O)N[C@@H](CO)C(=O)N[C@@H](CCCNC(=N)N)C(=O)N[C@@H](CC(N)=O)C(=O)N[C@H](C(=O)N[C@@H](CCC(=O)O)C(=O)N[C@@H](CCC(=O)O)C(=O)N[C@@H](C)C(=O)N[C@@H](CCCNC(=N)N)C(=O)N[C@@H](CC(C)C)C(=O)N[C@H](C(=O)N[C@H](C(=O)N[C@@H](CC(=O)O)C(=O)N[C@@H](Cc1ccccc1)C(=O)N[C@@H](CO)C(=O)N[C@@H](CCC(N)=O)C(=O)N[C@@H](Cc1ccccc1)C(=O)N[C@@H](CO)C(=O)N[C@@H](CCCCN)C(=O)NCC(=O)N[C@@H](CCCCN)C(=O)O)C(C)C)C(C)C)[C@@H](C)O)C(C)C)[C@@H](C)O` [RT1C] (H-SWPNRITGKLFLVDKNSRNTEEARLVVDFSQFSKGK-OH; N-terminus and C-terminus assumed), the “Binding to irrelevant DHBV core gene RNA” value (DHBV core gene RNA) was “able to bind to an irrelevant RNA derived from the DHBV core gene”, the “RNA binding to ε, relative (peptide titration)” value (ε RNA) was “bound RNA less well than the T3B peptide” and the “Binding to double-stranded DNA” value [1] was “able to bind to an irrelevant RNA derived from the DHBV core gene and to a double-stranded DNA fragment”.
